Reference: PubChem BioAssay AID179 (DTP/NCI, 2004)
Active and inactive are the calls of the source.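 The calls were made as follows: active = compounds giving half or more protection of infected cells from virus-caused growth loss, again on retest; inactive = the rest.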 Where a SMILES comes first, the peptide text is derived from it. The star is where a group is joined. Boc = CC(C)(C)OC(=O)*; OBn = c1ccc(CO*)cc1

System: CEM cells HIV-1 protection, formazan growth assay
Assay: NCI AIDS Antiviral Assay
Conditions: for IC50: measured here: growth of uninfected CEM cells
Summary of the method: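 Soluble formazan readout of cell growth; CEM cells ± HIV-1; 5 drug concs. ≥50% protection → retest; ≥50% again = moderately active; reproducible 100% = confirmed active.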

SMILES	EC50 [µM]	IC50 [µM]	outcome
COC(=O)c1ccc(-n2c(C)nc(=O)c(-c3ccccc3)c2C)cc1	> 100	> 100	
COc1ccc(/C=C/C(C(=O)O)C(=O)O)cc1	> 398	56.2	
Cc1ccnc(NS(=O)(=O)c2ccc(NC3=CC(=O)C(=O)c4ccccc43)cc2)n1			inactive
CCCCCCCCCCCCCCCCNc1nc(=O)n(C2CC(N=[N+]=[N-])C(CO)O2)cc1C (centres undefined)	> 200	9.33	
COc1cc(OCc2nc3cc(C(F)(F)F)ccc3nc2-c2ccccc2)cc(OC)c1OC	> 200	89.1	
CC(C)c1cc(C(=O)[O-])c(O)c(C(C)C)c1.CC(C)c1cc(C(=O)[O-])c(O)c(C(C)C)c1.CC(C)c1cc(C(=O)[O-])c(O)c(C(C)C)c1.CC(C)c1cc(C(=O)[O-])c(O)c(C(C)C)c1.CC(C)c1cc(C(=O)[O-])c(O)c(C(C)C)c1.CC(C)c1cc(C(=O)[O-])c(O)c(C(C)C)c1.[Cu+2].[Mn+2].[Mn+2]	> 21.4	10.7	
O=c1[nH]c(=O)n(COC(CO)CO)cc1-c1ccccc1	> 200	> 200	
N#C/C(=C\n1ccc(=O)[nH]c1=S)C(N)=O	> 200	> 200	
COC(OC)[C@@H]1OC[C@H](n2ccc(=O)[nH]c2=O)[C@H]1O	> 200	> 200	
Cc1cc(NS(=O)(=O)c2ccc(NC(=O)c3cccc4c(Nc5ccc(S(=O)(=O)Nc6cc(C)on6)cc5)c5ccc(Cl)cc5nc34)cc2)no1	> 240	135	
CC(C)CC(NC(=O)OC(C)(C)C)C(=O)NC(CC(=O)OCc1ccccc1)C(=O)OCc1ccccc1 (stereo not drawn) (Boc-Leu-Asp(OBn)-OBn; configuration not given here)	> 200	33.1	
C=C1C[C@@H]2O[C@H]3[C@H]4[C@@H](C[C@@H](C)[C@@H](OC(C)=O)[C@H]42)[C@@H](C)CO[C@@]3(C)[C@H](OC(=O)CCCCCCC)CC1=O	> 200	10	
NC(=S)NNC(=O)CCC(=O)Nc1ccccc1Cl			inactive
COC12C=CC(CC1)C(C)(C)C2OS(C)(=O)=O (centres undefined)			inactive
COC(=O)C1(Cc2ccc3c(c2)CCC3)Cc2cc3c(cc2C1=O)CCC3 (centres undefined)	> 200	30.9	
CO[C@@H]1[C@@H](OC2OC(C)C(OC3CC(C)(O)C(OC(=O)CC(C)C)C(C)O3)C(N(C)C)C2O)[C@@H](CC=O)C[C@@H](C)C(=O)/C=C/C2O[C@H]2C[C@@H](C)OC(=O)C[C@H]1OC(C)=O (some centres undefined)	> 148	7.76	
COc1ccc2[nH]c3c(C)c4ccnc(NCCCN(C)CCCNc5ccc6nnn7c8ccccc8c(=O)c5c67)c4c(C)c3c2c1	> 0.1	0.0316	
COC(=O)c1ccc2c(c1)CC1(C2)Cc2cc3c(cc2C1)CCC3	> 200	> 200	
CC(=O)Nc1ccc(S(=O)(=O)NN=C2CCCC2)cc1	> 851	708	
Cc1ccc(C2CC(c3ccc([N+](=O)[O-])cc3)=Nc3ccccc3S2)cc1 (centres undefined)	> 13.8	7.76	

SMILES	EC50 [µM]	IC50 [µM]	outcome
Cc1ncc(CO)c(CO)c1OCC(O)CN1CCN(C(=O)c2ccccc2)CC1 (centres undefined)	> 200	> 200	
CCCCCCCCCc1c(O)c(O)c(CCCCCCCCC)c(CCCCCCCCC)c1CCCCCCCCC	> 100	16.6	
C1=CC(=[N+]2N=C(c3ccccc3)CC2c2ccccc2)C=CC1=C1SC(c2ccccc2)(c2ccccc2)c2ccccc21 (centres undefined)	> 200	> 200	
O=C(CC(=O)N1N=C(N(c2ccccc2)c2ccccc2)CC1c1ccccc1)Nc1ccccc1 (centres undefined)			inactive
Cc1ncc(N)c(C(=O)O)n1	> 1620	> 1620	
O=C(NNc1nc2cc(F)ccc2n2cccc12)c1cnccn1	> 200	3.47	
c1ccc(CNCCCNCCCCNCCCNCc2ccccc2)cc1	> 15.1	1.62	
COc1ccc2c(c1)OC[C@@H]1c3ccc(OCc4ccccc4)cc3O[C@H]21	46.8	> 200	
[N-]=[N+]=CC(=O)OCC1SCCCS1	> 200	> 200	
Oc1ccc(O)c(CNc2ccc(C(O)C(F)(F)F)cc2)c1 (centres undefined)	> 200	18.6	
Cc1cc2c(C(C)C)c(O)c(O)c(C=NCC3CCCN4CCCCC34)c2cc1-c1cc2c(C=NCC3CCCN4CCCCC34)c(O)c(O)c(C(C)C)c2cc1C (centres undefined)	4.68	6.61	
O=c1c(-c2ccc3c(c2)OCO3)coc2c3c(ccc12)OCO3			inactive
O=C1c2ccccc2C(=O)[C@@]23O[C@@]12C1(Oc2cccc4cccc(c24)O1)[C@@H]1O[C@@H]1[C@@H]3O	> 20	1.15	
Cc1c(O)c2ccc(Cl)cc2n(C)c1=O	> 200	> 200	
O=C(C(O)c1cn(Cc2ccccc2)c2ccccc12)N1CCCCC1 (centres undefined)			inactive
CCN(CC)CCOC(=O)c1[nH]c(=O)[nH]c(=O)c1N	> 200	> 200	
O=S(=O)(O)SCC1=NCCN1	> 200	> 200	
COc1nc(N=[N+]=[N-])nc(-c2c(OC)ccc3ccccc23)n1	> 200	47.9	
O=c1[nH]c2ccccc2c(=O)n1/N=C\c1ccccc1O	> 200	> 200	
O=c1cc(-c2ccccc2)oc2ccc(Oc3nnnn3-c3ccccc3)cc12	> 200	> 200	

SMILES	EC50 [µM]	IC50 [µM]	outcome
Cc1cc(S(=O)(=O)Nc2n[nH]c(=O)n2-c2ccccc2)c(S)cc1Cl	155	> 200	
CCC/C=C/C=C/C(=O)OC1C(C)C2(O)C3C=C(C)C(=O)C3CC(COC(C)=O)=CC2C2C(C)(C)C12OC(=O)C(C)C (centres undefined)	0.977	1.02	
CC(=O)/C(C=Nc1c(C)n(C)n(C)c1=O)=C(/O)c1ccccc1	> 200	89.1	
O=S1(=O)c2ccccc2N(c2ccccc2)C2=NCCN21	> 120	> 120	
O=C1c2c(Br)sc(Br)c2[C@@H](NC(=O)C(F)(F)F)C1Br (some centres undefined)	> 200	3.8	
Oc1cc2ccccc2c2sc(-c3ccccc3)c(-c3ccccc3)[n+]12	> 200	17.8	
Cc1cccc2c1C/C(=C1\CCc3c(C)cccc31)C2=O			inactive
N#CC(C#N)=Cc1cccc(Oc2ccccc2)c1	> 29.5	> 29.5	
CC(=O)OCC1OC(n2c(C)c(C)cc(C#N)c2=S)C(OC(C)=O)C(OC(C)=O)C1OC(C)=O (centres undefined)	> 200	> 200	
[N-]=[N+]=Nc1c(C=O)c(=O)n(-c2ccccc2)c2ccccc12	> 200	21.9	
CCCCCCCCCCCCP(=O)(O)OCC(N)C(=O)O (centres undefined)	> 200	83.2	
CCN1CCOC(c2ccccc2)C1c1ccccc1 (centres undefined)	> 200	129	
O=c1[nH]c(Cc2ccccc2)nc2c1sc1nc3ccccc3n12	> 200	> 200	
CNC(=O)NCCN1CC2CCC(CC2)C1	> 200	> 200	
COc1ccc(/C(=N/NC(N)=O)C(c2ccc(OC)cc2)C2C(=O)Oc3ccccc32)cc1 (centres undefined)	> 30.2	> 30.2	
COc1ccc2c(c1OC)C(=O)O[C@@H]2C1c2cc3c(cc2CCN1C)OCO3 (some centres undefined)	> 245	> 245	
O=P(O)(O)Cc1c(Cl)c(Cl)c(CP(=O)(O)O)c(Cl)c1Cl	> 200	> 200	
Cc1cnc2c(c1C)C(=O)c1ccccc1C2=O			inactive
CN1C(=O)NC(C=O)(CCc2ccccc2)C1=O (centres undefined)			inactive
